Laboratory results taken from the NIST ThermoML archive (doi:10.1021/je900722m).

Assay: xn = mol fraction of the nth substance listed
Conditions: 101 kPa, Liquid

CCC(C)O (configuration not stated) [butan-2-ol] + CCCCO
Conditions | mass density [kg/m3] | viscosity [mPa·s]
303.15 K, x2 = 0.1008 | 798.816 | 3.157
303.15 K, x2 = 0.2005 | 799.24 | 3.08
303.15 K, x2 = 0.3002 | 799.646 | 3.027
303.15 K, x2 = 0.4006 | 800.045 | 2.987
303.15 K, x2 = 0.5004 | 800.435 | 2.956
303.15 K, x2 = 0.6005 | 800.827 | 2.932
303.15 K, x2 = 0.6999 | 801.204 | 2.912
303.15 K, x2 = 0.7989 | 801.568 | 2.894
303.15 K, x2 = 0.8988 | 801.909 | 2.875
308.15 K, x2 = 0.1008 | 794.588 | 2.679
308.15 K, x2 = 0.2005 | 795.059 | 2.65
308.15 K, x2 = 0.3002 | 795.516 | 2.626
308.15 K, x2 = 0.4006 | 795.957 | 2.609
308.15 K, x2 = 0.5004 | 796.396 | 2.595
308.15 K, x2 = 0.6005 | 796.828 | 2.583
308.15 K, x2 = 0.6999 | 797.242 | 2.57
308.15 K, x2 = 0.7989 | 797.635 | 2.557
308.15 K, x2 = 0.8988 | 798.014 | 2.545
313.15 K, x2 = 0.1008 | 790.266 | 2.312
313.15 K, x2 = 0.2005 | 790.801 | 2.299
313.15 K, x2 = 0.3002 | 791.313 | 2.288
313.15 K, x2 = 0.4006 | 791.795 | 2.283
313.15 K, x2 = 0.5004 | 792.279 | 2.278
313.15 K, x2 = 0.6005 | 792.762 | 2.275
313.15 K, x2 = 0.6999 | 793.224 | 2.272
313.15 K, x2 = 0.7989 | 793.655 | 2.268
313.15 K, x2 = 0.8988 | 794.069 | 2.264
318.15 K, x2 = 0.1008 | 785.851 | 1.982
318.15 K, x2 = 0.2005 | 786.455 | 1.981
318.15 K, x2 = 0.3002 | 787.036 | 1.981
318.15 K, x2 = 0.4006 | 787.575 | 1.982
318.15 K, x2 = 0.5004 | 788.113 | 1.986
318.15 K, x2 = 0.6005 | 788.64 | 1.992
318.15 K, x2 = 0.6999 | 789.157 | 1.999
318.15 K, x2 = 0.7989 | 789.625 | 2.007
318.15 K, x2 = 0.8988 | 790.08 | 2.013
323.15 K, x2 = 0.1008 | 781.329 | 1.723
323.15 K, x2 = 0.2005 | 782.01 | 1.737
323.15 K, x2 = 0.3002 | 782.667 | 1.75
323.15 K, x2 = 0.4006 | 783.274 | 1.763
323.15 K, x2 = 0.5004 | 783.873 | 1.773
323.15 K, x2 = 0.6005 | 784.456 | 1.782
323.15 K, x2 = 0.6999 | 785.021 | 1.79
323.15 K, x2 = 0.7989 | 785.535 | 1.795
323.15 K, x2 = 0.8988 | 786.04 | 1.798
328.15 K, x2 = 0.1008 | 776.706 | 1.506
328.15 K, x2 = 0.2005 | 777.468 | 1.525
328.15 K, x2 = 0.3002 | 778.208 | 1.543
328.15 K, x2 = 0.4006 | 778.887 | 1.56
328.15 K, x2 = 0.5004 | 779.553 | 1.576
328.15 K, x2 = 0.6005 | 780.198 | 1.59
328.15 K, x2 = 0.6999 | 780.817 | 1.602
328.15 K, x2 = 0.7989 | 781.386 | 1.612
328.15 K, x2 = 0.8988 | 781.936 | 1.621
333.15 K, x2 = 0.1008 | 771.968 | 1.327
333.15 K, x2 = 0.2005 | 772.822 | 1.349
333.15 K, x2 = 0.3002 | 773.649 | 1.369
333.15 K, x2 = 0.4006 | 774.407 | 1.387
333.15 K, x2 = 0.5004 | 775.144 | 1.405
333.15 K, x2 = 0.6005 | 775.861 | 1.421
333.15 K, x2 = 0.6999 | 776.534 | 1.434
333.15 K, x2 = 0.7989 | 777.165 | 1.447
333.15 K, x2 = 0.8988 | 777.765 | 1.457
338.15 K, x2 = 0.1008 | 767.116 | 1.178
338.15 K, x2 = 0.2005 | 768.057 | 1.201
338.15 K, x2 = 0.3002 | 768.985 | 1.224
338.15 K, x2 = 0.4006 | 769.83 | 1.242
338.15 K, x2 = 0.5004 | 770.644 | 1.258
338.15 K, x2 = 0.6005 | 771.436 | 1.275
338.15 K, x2 = 0.6999 | 772.174 | 1.29
338.15 K, x2 = 0.7989 | 772.85 | 1.302
338.15 K, x2 = 0.8988 | 773.53 | 1.315
343.15 K, x2 = 0.1008 | 762.161 | 1.055
343.15 K, x2 = 0.2005 | 763.194 | 1.08
343.15 K, x2 = 0.3002 | 764.213 | 1.102
343.15 K, x2 = 0.4006 | 765.15 | 1.121
343.15 K, x2 = 0.5004 | 766.048 | 1.138
343.15 K, x2 = 0.6005 | 766.918 | 1.155
343.15 K, x2 = 0.6999 | 767.729 | 1.171
343.15 K, x2 = 0.7989 | 768.484 | 1.184
343.15 K, x2 = 0.8988 | 769.214 | 1.197
